US20230132133A1, “METHODS AND COMPOSITIONS FOR THE TREATMENT OF C. DIFFICILE” (priority 2018, published 2023)
Values after ≈ are worked out from the molar mass of the structure shown.

How the values were obtained:
Type in all cases: cell-based, Bacillus amyloliquefaciens
[1] = system: B. amyloliquefaciens ART12; assay: Antibiotic MIC, VetMIC Lact-1 & Lact-2 panels; settings: average results from N= 6, 24 hr at 37° C.; for MIC: Bacillus amyloliquefaciens, ART12
Procedure: (§1) The wells of the prefabricated 96-well plates were filled with 100 μL of the final suspension. The plates were sealed with an […], Sigma Aldrich) sealing film (to facilitate growth of the aerobic Bacillus strains. The plates were then incubated for 24 hr at 37° C. The results are recorded after 24 hours as the lowest concentration of the antibiotic to inhibit visible growth. The prefabricated panels […], Uppsala, Sweden) comprising the antibiotics ampicillin, vancomycin, gentamicin, kanamycin, streptomycin, erythromycin, clindamycin, tetracycline, chloramphenicol, neomycin, penicillin, quinupristin-dalfopristin, linezolid, trimethoprim, ciprofloxacin and rifampicin were used.

[2] = system: B. amyloliquefaciens ART24; assay: Antibiotic MIC, VetMIC Lact-1 & Lact-2 panels; settings: average results from N= 6, 24 hr at 37° C.; for MIC: Bacillus amyloliquefaciens, ART24
Procedure: as §1

[3] = system: B. amyloliquefaciens ART4; assay: Antibiotic MIC, VetMIC Lact-1 & Lact-2 panels; settings: average results from N= 6, 24 hr at 37° C.; for MIC: Bacillus amyloliquefaciens, ART4
Procedure: as §1

[4] = system: B. amyloliquefaciens ART24; assay: Antibiotic MIC following EFSA testing recommendations on lyophilized ART24 lots and cell banks; settings: for MIC: Bacillus amyloliquefaciens, read-out: MIC for ART24
Excerpt: The minimum inhibitory concentration (MIC) of the listed antimicrobials is expressed as µg/mL.

Compound | MIC [1] [µg/mL] | MIC [2] [µg/mL] | MIC [3] [µg/mL] | MIC ([4]; ART24, source CO-33-12A2) [µg/mL] | MIC ([4]; ART24, source CO-33 ART 24 BHI) [µg/mL] | MIC ([4]; ART24, source CO-33 ART 024 S) [µg/mL] | MIC ([4]; ART24, source YD CO-33-10A2) [µg/mL] | B. amyloliquefaciens MIC ART12 [1] [µg/mL] | B. amyloliquefaciens MIC ART24 [2] [µg/mL] | B. amyloliquefaciens MIC ART4 [3] [µg/mL] | MIC for ART24 ([4]; source CO-33-12A2) [µg/mL] | MIC interpretation for ART24 ([4]; source CO-33-12A2) | MIC for ART24 ([4]; source CO-33 ART 24 BHI) [µg/mL] | MIC interpretation for ART24 ([4]; source CO-33 ART 24 BHI) | MIC for ART24 ([4]; source CO-33 ART 024 S) [µg/mL] | MIC interpretation for ART24 ([4]; source CO-33 ART 024 S) | MIC for ART24 ([4]; source YD CO-33-10A2) [µg/mL] | MIC interpretation for ART24 ([4]; source YD CO-33-10A2)
COc1cc(Cc2cnc(N)nc2N)cc(OC)c1OC [Trimethoprim] | ≤ 0.12 | ≤ 0.12 | ≤ 0.12 | ≤ 0.25 | ≤ 0.25 | ≤ 0.25 | ≤ 0.25 | – | – | – | – | – | – | – | – | – | – | –
Gentamicin | – | – | – | – | – | – | – | ≤0.5 | ≤0.5 | ≤0.5 | ≤ 0.06 | S | ≤ 0.06 | S | ≤ 0.06 | S | ≤ 0.06 | S
CC(=O)NC[C@H]1CN(c2ccc(N3CCOCC3)c(F)c2)C(=O)O1 [Linezolid] | 0.5 (≈ 1.48 µM) | 0.5 (≈ 1.48 µM) | 0.5 (≈ 1.48 µM) | 0.5 (≈ 1.48 µM) | 0.5 (≈ 1.48 µM) | 0.5 (≈ 1.48 µM) | 0.25 (≈ 0.741 µM) | – | – | – | – | – | – | – | – | – | – | –
O=C(N[C@H](CO)[C@H](O)c1ccc([N+](=O)[O-])cc1)C(Cl)Cl [Chloramphenicol] | 4 (≈ 12.4 µM) | 4 (≈ 12.4 µM) | 2 (≈ 6.19 µM) | 2 (≈ 6.19 µM) | 2 (≈ 6.19 µM) | 2 (≈ 6.19 µM) | 2 (≈ 6.19 µM) | – | – | – | – | S | – | S | – | S | – | S
O=C(O)c1cn(C2CC2)c2cc(N3CCNCC3)c(F)cc2c1=O [Ciprofloxacin] | ≤ 0.25 | ≤ 0.25 | ≤ 0.25 | ≤ 0.03 | ≤ 0.03 | ≤ 0.03 | ≤ 0.03 | – | – | – | – | S | – | S | – | S | – | S
CN(C)[C@@H]1C(O)=C(C(N)=O)C(=O)[C@@]2(O)C(O)=C3C(=O)c4c(O)cccc4[C@@](C)(O)[C@H]3C[C@@H]12 [Tetracycline] | 8 (≈ 18 µM) | 4 (≈ 9 µM) | 1 (≈ 2.25 µM) | 2 (≈ 4.5 µM) | 2 (≈ 4.5 µM) | 2 (≈ 4.5 µM) | 2 (≈ 4.5 µM) | – | – | – | – | S | – | S | – | S | – | S
CC[C@H]1OC(=O)[C@H](C)[C@@H](O[C@H]2C[C@@](C)(OC)[C@@H](O)[C@H](C)O2)[C@H](C)[C@@H](O[C@@H]2O[C@H](C)C[C@H](N(C)C)[C@H]2O)[C@](C)(O)C[C@@H](C)C(=O)[C@H](C)[C@@H](O)[C@]1(C)O [Erythromycin] | 0.12 (≈ 0.164 µM) | 0.12 (≈ 0.164 µM) | 0.12 (≈ 0.164 µM) | 0.06 (≈ 0.0818 µM) | 0.12 (≈ 0.164 µM) | 0.12 (≈ 0.164 µM) | 0.06 (≈ 0.0818 µM) | – | – | – | – | S | – | S | – | S | – | S
NC[C@H]1O[C@H](O[C@H]2[C@H](O)[C@@H](O[C@H]3O[C@H](CO)[C@@H](O)[C@H](N)[C@H]3O)[C@H](N)C[C@@H]2N)[C@H](O)[C@@H](O)[C@@H]1O [Kanamycin] | ≤ 2 | ≤ 2 | ≤ 2 | ≤ 0.5 | ≤ 0.5 | ≤ 0.5 | ≤ 0.5 | – | – | – | – | S | – | S | – | S | – | S
CCC[C@@H]1C[C@@H](C(=O)N[C@@H]([C@H]2O[C@H](SC)[C@H](O)[C@@H](O)[C@H]2O)[C@H](C)Cl)N(C)C1 [Clindamycin] | 1 (≈ 2.35 µM) | 0.5 to 1 (≈ 1.18 to 2.35 µM) | 0.5 (≈ 1.18 µM) | 0.25 (≈ 0.588 µM) | 0.25 (≈ 0.588 µM) | 0.25 (≈ 0.588 µM) | 0.12 (≈ 0.282 µM) | – | – | – | – | S | – | S | – | S | – | S
CC1(C)S[C@@H]2[C@H](NC(=O)[C@H](N)c3ccccc3)C(=O)N2[C@H]1C(=O)O [Ampicillin] | 0.25 (≈ 0.715 µM) | 0.25 (≈ 0.715 µM) | 0.12 (≈ 0.343 µM) | ≤ 0.03 | ≤ 0.03 | ≤ 0.03 | ≤ 0.03 | – | – | – | – | S | – | S | – | S | – | S
Penicillin | – | – | – | – | – | – | – | 0.5 | 0.12 to 0.5 | 0.12 | ≤ 0.03 | S | ≤ 0.03 | S | 0.06 | S | ≤ 0.03 | S
Neomycin | – | – | – | – | – | – | – | ≤0.5 | ≤0.5 | ≤0.5 | ≤0.12 | – | ≤0.12 | – | ≤0.12 | – | ≤0.12 | –
[H]/N=C(/N)N[C@H]1[C@H](O)[C@@H](O)[C@H](O[C@@H]2O[C@@H](C)[C@](O)(C=O)[C@H]2O[C@@H]2O[C@@H](CO)[C@H](O)[C@@H](O)[C@@H]2NC)[C@@H](N/C(N)=N\[H])[C@@H]1O [Streptomycin] | 4 (≈ 6.88 µM) | 4 (≈ 6.88 µM) | 4 (≈ 6.88 µM) | 1 (≈ 1.72 µM) | 1 (≈ 1.72 µM) | 2 (≈ 3.44 µM) | 1 (≈ 1.72 µM) | – | – | – | – | S | – | S | – | S | – | S
CO[C@H]1/C=C/O[C@@]2(C)Oc3c(C)c(O)c4c(O)c(c(/C=N/N5CCN(C)CC5)c(O)c4c3C2=O)NC(=O)/C(C)=C\C=C\[C@H](C)[C@H](O)[C@@H](C)[C@@H](O)[C@@H](C)[C@H](OC(C)=O)[C@@H]1C [Rifampicin] | 0.5 (≈ 0.608 µM) | 0.5 (≈ 0.608 µM) | 0.25 (≈ 0.304 µM) | 0.25 (≈ 0.304 µM) | 0.25 (≈ 0.304 µM) | 0.25 (≈ 0.304 µM) | 0.25 (≈ 0.304 µM) | – | – | – | – | S | – | S | – | S | – | S
Quinupristin-dalfopristin | – | – | – | – | – | – | – | 4 | 4 | 4 | 2 | – | 2 | – | 2 | – | 1 | –
